Results published in patent publication US20100297692A1, “REACTION MEDIUM FOR DETECTING AND/OR IDENTTIFYING STAPHYLOCCOUS AUREUS” (BIOMERIEUX, priority 2007, published 2010).

Experiments:
[1] = test system: S. aureus (MRSA); experiment: β-D-ribosidase substrates in Columbia agar, colored or fluorescent colonies; format: cell-based, Staphylococcus aureus
Method: (§1) The media hereinafter were prepared in 200 ml of a Columbia agar base (Oxoid), in combination with the chromogenic β-D-ribosidase substrates. The various substrates and also the concentrations and the additives used in the media are described in Table 1 below:
(§2) The β-D-ribosidase substrates are solubilized in DMSO and added to the media so as to obtain the concentrations indicated in Table 1.
(§3) 191 bacterial strains were inoculated onto each of the media using a suspension at 0.5 MacFarland diluted to 1/1000. The dishes were incubated at 37° C. and then read.
(§4) The media were distributed into Petri dishes, then inoculated with approximately 100 000 CFU, then incubated at 37° C. for 48 h. The colonies formed were examined visually after incubation times of 18, 24 and 48 hours.
(§5) The stock collection of 191 strains comprised: […], 48 Staphylococcus spp, 61 Enterococcus spp and 3 alpha-hemolytic Streptococcus.

[2] = test system: S. aureus (MSSA); experiment: as above; format: cell-based, Staphylococcus aureus
Method: as §1, §2, §3, §4, §5

[3] = test system: Coagulase-negative Staphylococci; experiment: as above; format: cell-based, Staphylococcus spp; conditions: for % of strains producing colored or fluorescent colonies: Coagulase-negative Staphylococci
Method: as §1, §2, §3, §4, §5

[4] = test system: Micrococcus luteus; experiment: as above; format: cell-based
Method: [The procedure below names another organism; the source lists this organism under the same test.] as §1, §2, §3, §4, §5

[5] = test system: Enterococci; experiment: as above; format: cell-based, Enterococcus spp
Method: as §1, §2, §3, §4, §5

[6] = test system: Alpha-hemolytic streptococci; experiment: as above; format: cell-based, alpha-hemolytic Streptococcus
Method: as §1, §2, §3, §4, §5

[7] = test system: S aureus (MRSA and MSSA); experiment: Catechol-β-D-riboside and X-β-D-riboside on a broad panel of Staphylococcus spp; format: cell-based; conditions: modified Chapman medium without NaCl, 60 mg/l substrate
Method: (§6) Catechol-β-D-riboside: A GTS medium (bioMérieux) supplemented with 300 mg/l of catechol-β-D-riboside, then autoclaved, and with 500 mg/l of ammoniacal iron citrate was used and distributed into Petri dishes 55 mm in diameter.
(§7) X-β-D-riboside: A modified Chapman medium, without NaCl, autoclaved and supplemented with 60 mg/l of X-β-D-riboside, was used and distributed into Petri dishes 55 mm in diameter.
For the two media, the inoculation was carried out using precultures prepared for 24 h at 37° C. A suspension in physiological saline at 0.5 McF was prepared and then each strain was inoculated onto a dish using a 10 μl calibrated loop. […]
(§8) In total, […] were tested: 34 S. aureus, including 25 MRSAs, and 46 other species of Staphylococcus (including S. schleiferi; S. capitis; S. hyicus; S. intermedius; S. haemolyticus; S. auricularis; S. hominis; S. warneri; S. chromogenes; S. cohnii; S. epidermidis; S. sciuri; S. xylosus; S. saprophyticus).

[8] = test system: Coag neg; experiment: as above; format: cell-based; conditions: modified Chapman medium without NaCl, 60 mg/l substrate
Method: as §6, §7
For the two media, the inoculation was carried out using precultures prepared for 24 h at 37° C. A suspension in physiological saline at 0.5 McF was prepared and then each strain was inoculated onto a dish using a 10 μl calibrated loop.
The readings were carried out after 24 and 48 hours of incubation at 37° C.
as §8

## 5-Bromo-4-chloro-3-indoxyl-beta-D-riboside [X-β-riboside]
[1]; 80 mg/L, 18 h
  % of strains producing colored or fluorescent colonies: 84%
[1]; 80 mg/L, 24 h
  % of strains producing colored or fluorescent colonies: 92%
[1]; 80 mg/L, 48 h
  % of strains producing colored or fluorescent colonies: 97%
[1]; 200 mg/L, 18 h
  % of strains producing colored or fluorescent colonies: 82%
[1]; 200 mg/L, 24 h
  % of strains producing colored or fluorescent colonies: 87%
[1]; 200 mg/L, 48 h
  % of strains producing colored or fluorescent colonies: 95%
[2]; 80 mg/L, 18 h
  % of strains producing colored or fluorescent colonies: 64%
[2]; 80 mg/L, 24 h
  % of strains producing colored or fluorescent colonies: 100%
[2]; 80 mg/L, 48 h
  % of strains producing colored or fluorescent colonies: 100%
[2]; 200 mg/L, 18 h
  % of strains producing colored or fluorescent colonies: 64%
[2]; 200 mg/L, 24 h
  % of strains producing colored or fluorescent colonies: 64%
[2]; 200 mg/L, 48 h
  % of strains producing colored or fluorescent colonies: 100%
[3]; 80 mg/L, 18 h
  % of strains producing colored or fluorescent colonies: 3%
[3]; 80 mg/L, 24 h
  % of strains producing colored or fluorescent colonies: 6%
[3]; 80 mg/L, 48 h
  % of strains producing colored or fluorescent colonies: 6%
[3]; 200 mg/L, 18 h
  % of strains producing colored or fluorescent colonies: 3%
[3]; 200 mg/L, 24 h
  % of strains producing colored or fluorescent colonies: 3%
[3]; 200 mg/L, 48 h
  % of strains producing colored or fluorescent colonies: 3%
[3]; Columbia agar, 24 h of incubation, concentration not given
  false positives among the coagulase-negative staphylococci: 3%
[4]; 80 mg/L, 18 h
  % of strains producing colored or fluorescent colonies: 0%
[4]; 80 mg/L, 24 h
  % of strains producing colored or fluorescent colonies: 0%
[4]; 80 mg/L, 48 h
  % of strains producing colored or fluorescent colonies: 0%
[4]; 200 mg/L, 18 h
  % of strains producing colored or fluorescent colonies: 0%
[4]; 200 mg/L, 24 h
  % of strains producing colored or fluorescent colonies: 0%
[4]; 200 mg/L, 48 h
  % of strains producing colored or fluorescent colonies: 0%
[5]; 80 mg/L, 18 h
  % of strains producing colored or fluorescent colonies: 2%
[5]; 80 mg/L, 24 h
  % of strains producing colored or fluorescent colonies: 2%
[5]; 80 mg/L, 48 h
  % of strains producing colored or fluorescent colonies: 2%
[5]; 200 mg/L, 18 h
  % of strains producing colored or fluorescent colonies: 2%
[5]; 200 mg/L, 24 h
  % of strains producing colored or fluorescent colonies: 2%
[5]; 200 mg/L, 48 h
  % of strains producing colored or fluorescent colonies: 2%
[6]; 80 mg/L, 18 h
  % of strains producing colored or fluorescent colonies: 0%
[6]; 80 mg/L, 24 h
  % of strains producing colored or fluorescent colonies: 0%
[6]; 80 mg/L, 48 h
  % of strains producing colored or fluorescent colonies: 0%
[6]; 200 mg/L, 18 h
  % of strains producing colored or fluorescent colonies: 0%
[6]; 200 mg/L, 24 h
  % of strains producing colored or fluorescent colonies: 0%
[6]; 200 mg/L, 48 h
  % of strains producing colored or fluorescent colonies: 0%
[7]; 18 h
  Number of strains producing a coloration/total number of strains, positive at 18 h: 17/34
[7]; 24 h
  Number of strains producing a coloration/total number of strains, positive at 24 h: 29/34
[7]; 48 h
  Number of strains producing a coloration/total number of strains, positive at 48 h: 33/34
[8]; 18 h
  Number of strains producing a coloration/total number of strains, positive at 18 h: 7/46
[8]; 24 h
  Number of strains producing a coloration/total number of strains, positive at 24 h: 12/46
[8]; 48 h
  Number of strains producing a coloration/total number of strains, positive at 48 h: 14/46

## 5-Bromo-6-chloro-3-indoxyl-beta-D-riboside [Magenta-β-riboside]
[1]; 100 mg/L, 18 h
  % of strains producing colored or fluorescent colonies: 71%
[1]; 100 mg/L, 24 h
  % of strains producing colored or fluorescent colonies: 85%
[1]; 100 mg/L, 48 h
  % of strains producing colored or fluorescent colonies: 95%
[2]; 100 mg/L, 18 h
  % of strains producing colored or fluorescent colonies: 64%
[2]; 100 mg/L, 24 h
  % of strains producing colored or fluorescent colonies: 64%
[2]; 100 mg/L, 48 h
  % of strains producing colored or fluorescent colonies: 100%
[3]; 100 mg/L, 18 h
  % of strains producing colored or fluorescent colonies: 0%
[3]; 100 mg/L, 24 h
  % of strains producing colored or fluorescent colonies: 3%
[3]; 100 mg/L, 48 h
  % of strains producing colored or fluorescent colonies: 6%
[4]; 100 mg/L, 18 h
  % of strains producing colored or fluorescent colonies: 0%
[4]; 100 mg/L, 24 h
  % of strains producing colored or fluorescent colonies: 0%
[4]; 100 mg/L, 48 h
  % of strains producing colored or fluorescent colonies: 0%
[5]; 100 mg/L, 18 h
  % of strains producing colored or fluorescent colonies: 0%
[5]; 100 mg/L, 24 h
  % of strains producing colored or fluorescent colonies: 2%
[5]; 100 mg/L, 48 h
  % of strains producing colored or fluorescent colonies: 2%
[6]; 100 mg/L, 18 h
  % of strains producing colored or fluorescent colonies: 0%
[6]; 100 mg/L, 24 h
  % of strains producing colored or fluorescent colonies: 0%
[6]; 100 mg/L, 48 h
  % of strains producing colored or fluorescent colonies: 0%
